Measurements published in patent publication US20080161289A1, “Fused Thiazole Derivatives Having Affinity for the Histamine H3 Receptor” (Glaxo Group Limited, priority 2005, published 2008).

Each molecule was assayed against T1, histamine H3 receptors (Homo sapiens, UniProt Q9Y5N1) (assay: Histamine H3 functional antagonist assay ([35S]-GTPγS SPA on membranes from H3 cells)). Conditions: hydrochloride salts tested; H3 functional antagonist assay using membrane prepared from cultured H3 cells; averages of a number of experiments; read-out: functional pKi (fpKi) (converted).
T1 construct: expressed in transfected cells; host or cells: CHO K1 cells carrying pSwitch, transfected with pGeneH3, induced with mifepristone; clone 3H3; membrane preparation
T1 sequence (Q9Y5N1 whole entry): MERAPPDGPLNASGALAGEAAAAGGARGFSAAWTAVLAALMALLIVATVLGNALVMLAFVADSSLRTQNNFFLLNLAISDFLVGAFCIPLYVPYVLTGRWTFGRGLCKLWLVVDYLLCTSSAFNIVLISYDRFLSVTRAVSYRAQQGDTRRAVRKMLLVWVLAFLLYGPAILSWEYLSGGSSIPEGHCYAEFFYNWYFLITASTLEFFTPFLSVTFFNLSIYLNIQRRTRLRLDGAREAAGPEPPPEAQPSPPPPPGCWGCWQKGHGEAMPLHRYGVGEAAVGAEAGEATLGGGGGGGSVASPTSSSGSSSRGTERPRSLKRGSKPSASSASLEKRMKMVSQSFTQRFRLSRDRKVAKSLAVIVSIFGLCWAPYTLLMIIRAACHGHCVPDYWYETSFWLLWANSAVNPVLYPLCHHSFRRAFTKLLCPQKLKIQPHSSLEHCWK
Assay type: biochemical
Text: A membrane preparation containing histamine H3 receptors may be prepared in accordance with the following procedures:
(i) Generation of Histamine H3 Cell Line
DNA encoding the human histamine H3 gene (Huvar, A. et al. (1999) Mol. Pharmacol. 55(6), 1101-1107) was cloned into a holding vector, pCDNA3.1 TOPO (InVitrogen) and its cDNA was isolated from this vector by restriction digestion of plasmid DNA with the enzymes BamHI and Not-1 and ligated into the inducible expression vector pGene (InVitrogen) digested with the same enzymes. The GeneSwitch™ system (a system where in transgene expression is switched off in the absence of an inducer and switched on in the presence of an inducer) was performed as described in U.S. Pat. Nos. 5,364,791; 5,874,534; and 5,935,934. Ligated DNA was transformed into competent DH5α E. coli host bacterial cells and plated onto Luria Broth (LB) agar containing Zeocin™ (an antibiotic which allows the selection of cells expressing the sh ble gene which is present on pGene and pSwitch) at 50 μg ml^−1. Colonies containing the re-ligated plasmid were identified by restriction analysis. DNA for transfection into mammalian cells was prepared from 250 ml cultures of the host bacterium containing the pGeneH3 plasmid and isolated using a DNA preparation kit (Qiagen Midi-Prep) as per manufacturers guidelines (Qiagen).
CHO K1 cells previously transfected with the pSwitch regulatory plasmid (InVitrogen) were seeded at 2×10e6 cells per T75 flask in Complete Medium, containing Hams F12 (GIBCOBRL, Life Technologies) medium supplemented with 10% v/v dialysed foetal bovine serum, L-glutamine, and hygromycin (100 μg ml^−1), 24 hours prior to use. Plasmid DNA was transfected into the cells using Lipofectamine plus according to the manufacturers guidelines (InVitrogen). 48 hours post transfection cells were placed into complete medium supplemented with 500 μg ml^−1 Zeocin™.
10-14 days post selection 10 nM Mifepristone (InVitrogen), was added to the culture medium to induce the expression of the receptor. 18 hours post induction cells were detached from the flask using ethylenediamine tetra-acetic acid (EDTA; 1:5000; InVitrogen), following several washes with phosphate buffered saline pH 7.4 and resuspended in Sorting Medium containing Minimum Essential Medium (MEM), without phenol red, and supplemented with Earles salts and 3% Foetal Clone II (Hyclone). Approximately 1×10e7 cells were examined for receptor expression by staining with a rabbit polyclonal antibody, 4a, raised against the N-terminal domain of the histamine H3 receptor, incubated on ice for 60 minutes, followed by two washes in sorting medium. Receptor bound antibody was detected by incubation of the cells for 60 minutes on ice with a goat anti rabbit antibody, conjugated with Alexa 488 fluorescence marker (Molecular Probes). Following two further washes with Sorting Medium, cells were filtered through a 50 μm Filcon™ (BD Biosciences) and then analysed on a FACS Vantage SE Flow Cytometer fitted with an Automatic Cell Deposition Unit. Control cells were non-induced cells treated in a similar manner. Positively stained cells were sorted as single cells into 96-well plates, containing Complete Medium containing 500 μg ml^−1 Zeocin™ and allowed to expand before reanalysis for receptor expression via antibody and ligand binding studies. One clone, 3H3, was selected for membrane preparation.
(ii) Membrane Preparation from Cultured Cells
All steps of the protocol are carried out at 4° C. and with pre-cooled reagents. The cell pellet is resuspended in 10 volumes of homogenisation buffer (50 mM N-2-hydroxyethylpiperazine-N′-2-ethanesulfonic acid (HEPES), 1 mM ethylenediamine tetra-acetic acid (EDTA), pH 7.4 with KOH, supplemented with 10e-6M leupeptin (acetyl-leucyl-leucyl-arginal; Sigma L2884), 25 μg/ml bacitracin (Sigma B0125), 1 mM phenylmethylsulfonyl fluoride (PMSF) and 2×10e-6M pepstain A (Sigma)). […]
With `Cc1cn(C)nc1C(=O)N1CCC(c2nc3c(s2)CCN(C2CCC2)CC3)CC1` [Example E85, 6-Cyclobutyl-2-{1-[(1,4-dimethyl-1H-pyrazol-3-yl)carbonyl]-4-piperidinyl}-5,6,7,8-tetrahydro-4H-[1,3]thiazolo[4,5-d]azepine] the Ki was less than 1.26 nM.
Work on `Cc1cc(C(=O)N2CCC(c3nc4c(s3)CCN(C3CCC3)CC4)CC2)nn1C` [Example E88, 6-Cyclobutyl-2-{1-[(1,5-dimethyl-1H-pyrazol-3-yl)carbonyl]-4-piperidinyl}-5,6,7,8-tetrahydro-4H-[1,3]thiazolo[4,5-d]azepine] yielded a Ki of less than 1.26 nM.
`O=C(c1ccccn1)N1CCC(c2nc3c(s2)CCN(C2CCC2)CC3)CC1` [Example E90, 6-Cyclobutyl-2-[1-(2-pyridinylcarbonyl)-4-piperidinyl]-5,6,7,8-tetrahydro-4H-[1,3]thiazolo[4,5-d]azepine] gave a Ki of less than 1.26 nM.
For `Cc1cncc(C(=O)N2CCC(c3nc4c(s3)CCN(C3CCC3)CC4)CC2)n1` [Example E92, 6-Cyclobutyl-2-{1-[(6-methyl-2-pyrazinyl)carbonyl]-4-piperidinyl}-5,6,7,8-tetrahydro-4H-[1,3]thiazolo[4,5-d]azepine], the Ki was less than 1.26 nM.
In the case of `Cc1cc(C(=O)N2CCC(c3nc4c(s3)CCN(C3CCC3)CC4)CC2)ccn1` [Example E93, 6-Cyclobutyl-2-{1-[(2-methyl-4-pyridinyl)carbonyl]-4-piperidinyl}-5,6,7,8-tetrahydro-4H-[1,3]thiazolo[4,5-d]azepine], the Ki is reported as less than 1.26 nM.
`Cc1nccc(C(=O)N2CCC(c3nc4c(s3)CCN(C3CCC3)CC4)CC2)n1` [Example E95, 6-Cyclobutyl-2-{1-[(2-methyl-4-pyrimidinyl)carbonyl]-4-piperidinyl}-5,6,7,8-tetrahydro-4H-[1,3]thiazolo[4,5-d]azepine] was tested, and the Ki was less than 1.26 nM.
In the case of `O=S1(=O)CCCN1c1ccc(-c2nc3c(s2)CCN(C2CCC2)CC3)cc1` [Example E99, 6-Cyclobutyl-2-[4-(1,1-dioxido-2-isothiazolidinyl)phenyl]-5,6,7,8-tetrahydro-4H-[1,3]thiazolo[4,5-d]azepine], the Ki is reported as less than 1.26 nM.
Molecule `NC(=O)c1ccc(-c2nc3c(s2)CCN(C2CCC2)CC3)cn1` [Example E100, 5-(6-Cyclobutyl-5,6,7,8-tetrahydro-4H-[1,3]thiazolo[4,5-d]azepin-2-yl)-2-pyridinecarboxamide] has a Ki of less than 1.26 nM.
`O=C1NCCN1c1ccc(-c2nc3c(s2)CCN(C2CCC2)CC3)cn1` [Example E103, 1-[5-(6-Cyclobutyl-5,6,7,8-tetrahydro-4H-[1,3]thiazolo[4,5-d]azepin-2-yl)-2-pyridinyl]-2-imidazolidinone] showed a Ki of less than 1.26 nM.
`N#Cc1ccc(C(=O)N2CCC(c3nc4c(s3)CCN(C3CCC3)CC4)C2)cc1` (stereo not drawn) [Example E105, 4-{[3-(6-Cyclobutyl-5,6,7,8-tetrahydro-4H-[1,3]thiazolo[4,5-d]azepin-2-yl)-1-pyrrolidinyl]carbonyl}benzonitrile] gave a Ki of less than 1.26 nM.
Molecule `Cc1cccc(C(=O)N2CCC(c3nc4c(s3)CCN(C3CCC3)CC4)C2)n1` (stereo not drawn) [Example E106, 6-Cyclobutyl-2-{1-[(6-methyl-2-pyridinyl)carbonyl]-3-pyrrolidinyl}-5,6,7,8-tetrahydro-4H-[1,3]thiazolo[4,5-d]azepine] has a Ki of less than 31.6 nM.
Molecule `c1cc(N2CCCC2)ncc1-c1nc2c(s1)CCN(C1CCC1)CC2` [Example E107, 6-Cyclobutyl-2-[6-(1-pyrrolidinyl)-3-pyridinyl]-5,6,7,8-tetrahydro-4H-[1,3]thiazolo[4,5-d]azepine] has a Ki greater than 7.94 nM.
`c1cc(N2CCOCC2)ncc1-c1nc2c(s1)CCN(C1CCC1)CC2` [Example E108, 6-Cyclobutyl-2-[6-(4-morpholinyl)-3-pyridinyl]-5,6,7,8-tetrahydro-4H-[1,3]thiazolo[4,5-d]azepine] showed a Ki of less than 1.26 nM.
`N#Cc1cccc(-c2nc3c(s2)CCN(C2CCC2)CC3)c1` [Example E112, 3-(6-Cyclobutyl-5,6,7,8-tetrahydro-4H-[1,3]thiazolo[4,5-d]azepin-2-yl)benzonitrile] showed a Ki of less than 31.6 nM.
`CN(C)c1ccc(-c2nc3c(s2)CCN(C2CCC2)CC3)cc1` [Example E116, 4-(6-Cyclobutyl-5,6,7,8-tetrahydro-4H-[1,3]thiazolo[4,5-d]azepin-2-yl)-N,N-dimethylaniline] gave a Ki of less than 1.26 nM.
